Here are results for 43 molecules from patent EP4810493A1, “HETEROCYCLIC CARBONYL DERIVATIVE MODULATOR, PREPARATION METHOD THEREFOR, AND USE THEREOF” (Shanghai Hansoh Biomedical Co., Ltd., priority 2023, dated 2025).

What is called EC50 is the concentration that produces a half-maximal response.

The first experiment has as its target T1, M4 receptor (Homo sapiens, UniProt P08173).
T1 construct: expressed in transfected cells
T1 sequence (P08173 1-479): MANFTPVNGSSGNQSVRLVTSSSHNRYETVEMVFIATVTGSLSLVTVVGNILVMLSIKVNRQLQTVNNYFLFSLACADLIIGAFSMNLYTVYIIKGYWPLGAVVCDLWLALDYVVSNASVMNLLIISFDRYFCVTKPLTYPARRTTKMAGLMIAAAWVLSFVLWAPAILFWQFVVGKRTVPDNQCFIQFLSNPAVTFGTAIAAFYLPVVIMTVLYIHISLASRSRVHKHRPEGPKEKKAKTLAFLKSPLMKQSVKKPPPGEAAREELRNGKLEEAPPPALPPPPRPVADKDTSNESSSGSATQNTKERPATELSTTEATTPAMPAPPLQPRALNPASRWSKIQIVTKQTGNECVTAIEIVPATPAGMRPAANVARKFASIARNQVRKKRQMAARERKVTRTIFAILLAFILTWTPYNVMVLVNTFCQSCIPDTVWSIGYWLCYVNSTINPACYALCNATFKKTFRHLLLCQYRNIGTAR
The experiment is described as follows: Calcium flux (FLIPR) potentiation assay in cells stably expressing M4 receptor. The format is cell-based.
Conditions: not given
From the text:
Test example 1. Determination of the effect of the compounds of the present invention on calcium current in cells stably expressing M1-M5 receptors
To detect the potentiating effect of compounds on calcium flux activity in CHO-K1/human M1/3/5 and CHO-K1/Gα15 M2/4 cells.
384-well assay plate, 384-well plate, FLIPR Tip, FLIPR Penta plate reader, Dispendix non-contact nanoliter dispensing system (liquid handling workstation), liquid handler.
Ham's F-12 Nutrient Mix, foetal bovine serum, P/S (Gibco: 15140122), HBSS (Gibco: 14025076), HEPES (Gibco: 15630080), FLIPR calcium 6 assay kit (Molecular Devices: R8190), Probenecid (PBA) (Invitrogen: P36400), Acetylcholine chloride (Sigma: A6625-25G) Complete culture medium: DMEM + 10% FBS + 1X P/S; Cell seeding medium: DMEM + 10% FBS + 1X PS; Assay buffer 1: 1X HBSS + 20 mM HEPES +2.5 mM Probenecid; Assay buffer 2: 1X HBSS + 20 mM HEPES; Cell line: CHO-K1/M1; CHO-K1/M2/Gα15; CHO-K1/M3; CHO-K1/M4/Gα15; CHO-K1/M5.
FLIPR calcium 6 assay kit: Component A was dissolved in Assay buffer 1, and the mixture was shaken for 1-2 min, sub-packaged and stored at -20°C.
• 1) CHO-K1/M1; CHO-K1/M2/Gα15; CHO-K1/M3; CHO-K1/M4/Gα15; and CHO-K1/M5 cell lines were cultured separately in complete culture medium at 37°C, 5% CO2 to 70%-90% confluency. • 2) The cells were digested and resuspended in cell seeding medium, 5,000 cells/well/20 µL were seeded into a 384-well cell culture plate, and the cells were cultured at 37°C, 5% CO2 for 24 hours. • 3) The cell culture plate was taken out of the CO2 incubator and equilibrated at room temperature for 10 minutes. • 4) Component A solution was removed and allowed to equilibrate to room temperature. 20 µL of Component A solution was added to each well of the cell culture plate, and incubated at room temperature in the dark for 1 hour. • 5) Acetylcholine chloride (ACh), a muscarinic receptor agonist, was prepared in Assay buffer 2 at EC20/EC100 concentrations; subsequently, 30 µL of the prepared muscarinic receptor agonist was added to a 384-well agonist plate (PE: 6008590) using a Multidrop Combi; the working solutions of the positive control compound and the test compound were serially diluted at a 3.16-fold gradient and dispensed (450 nL) into a 384-well compound plate (PE: 6008590) using the Dispendix liquid handling workstation; 30 µL of Assay buffer 2 was added to the 384-well compound plate (PE: 6008590) using the Multidrop Combi; the positive control compound and the test compound were diluted to 6X, mixed by shaking, and placed at room temperature until use. • 6) 10 µL of the diluted 6X compound was added to the assay wells of the corresponding 384-well cell plate using the FLIPR Penta, followed by a 2-minute incubation. • 7) 10 µL of the prepared muscarinic receptor agonist was added to the assay wells of the corresponding 384-well cell plate using the FLIPR Penta, with simultaneous data acquisition.
FLIPR Penta was used to read and collect the fluorescence signal value (RFU). The maximum RFU value was used to calculate the percent activation data based on the readings of the Low control (DMSO control group) and High control (ACh EC100) experimental groups {% activation rate = (RFUsample - RFUlow control) / (RFUhigh control - RFUlow control)×100}. The test compound was diluted 3.16X in the reaction system to generate 11 concentration points ranging from 30 µM to […].
(In general: A change in cytosolic calcium serves as a functional read-out for many receptors and channels.)
For the molecule `Cc1c2c(c3ncnn3c1C)CN(C(=O)OC1CN(c3cc(Cl)ncc3Cl)C1)C2` [Example 187], the concentration for a half-maximal effect (EC50) was determined as 28.2 nM.

Regarding `Cc1c2c(c3ncnn3c1C)CN(C(=O)CC1CN(c3ncc(F)cc3F)C1)C2` [Example 301], the concentration for a half-maximal effect (EC50) came to 12.4 nM. The same measure, in the same setting: as for `Cc1c2c(c3ncnn3c1C)CN(C(=O)CC1CN(c3ccc4c(ccn4C)c3)C1)C2` [Example 309], the figure is 28.1 nM; as for `Cc1cn2nc(N3CC(CC(=O)N4Cc5c(C)c(C)n6ncnc6c5C4)C3)ccc2n1` [Example 55], 18.1 nM.

Regarding `Cc1c2c(c3nccn3c1C)CN(C(=O)CC1CC1c1ccc(F)nc1)C2` (stereo not shown) [Example 104], the EC50 came out at 53.8 nM.

Still in this experiment, the particulars now being: CHO-K1/M4/Gα15 cells; potentiation of acetylcholine (EC20) calcium flux; read-out: M4 FLIPR EC50.
Turning to `Cc1c2c(c3ncnn3c1C)CN(C(=O)CC1CN(c3ccc(C4CC4)nc3)C1)C2` [Example 312], the EC50 came out at 15.1 nM. Consider `CCNc1nccc(N2CC(CC(=O)N3Cc4c(C)c(C)n5ncnc5c4C3)C2)n1` [Example 53], for which the EC50 was found to be 8 nM.

With `COc1c(C)c2c(n3ncnc13)CN(C(=O)CC1CN(c3ccnc(C(F)(F)F)c3)C1)C2` [Example 292, 1-(4-Methoxy-5-methyl-7,8-dihydro-6H-[1,2,4]triazolo[5,1-f]pyrrolo[4,3-b]pyridin-7-yl)-2-{1-[2-(trifluoromethyl)pyridin-4-yl]azetidin-3-yl}ethan-1-one], the half-maximal effective concentration (EC50) amounted to 53.5 nM.

In the case of `Cc1c2c(c3nccn3c1C)CN(C(=O)CC1CN(c3ccnc(OC(F)F)c3)C1)C2` [Example 70], the half-maximal effective concentration (EC50) worked out at 73.6 nM.

`Cc1c2c(c3ncnn3c1C)CN(C(=O)CC1CN(c3ccc(C(F)(F)F)cn3)C1)C2` [Example 217]: the EC50 came to 99.7 nM.

Regarding `Cc1c2c(c3ncnn3c1C)CN(C(=O)OC1CN(c3cc(C(F)F)ncc3Cl)C1)C2` [Example 184], the EC50 is 44.1 nM. In the case of `[2H]C([2H])([2H])Oc1cc(N2CC(OC(=O)N3Cc4c(C)c(C)n5ncnc5c4C3)C2)ccn1` [Example 247], the concentration for a half-maximal effect (EC50) worked out at 96.3 nM.

As for `Cc1c2c(c3ncnn3c1C)CN(C(=O)CC1CN(c3ccnc(OCC(F)(F)F)c3)C1)C2` [Example 186], the half-maximal effective concentration (EC50) came out at 28.8 nM. Same read-out and setting: the result for `Cc1nc2c3c(c(C)c(C)n2n1)CN(C(=O)[C@@H]1CCN(c2ccncn2)C1)C3` [Example 232] reads 36.4 nM; that for `Cc1c2c(c3ncnn3c1C)CN(C(=O)C1CC(Nc3ccnc(C(F)(F)F)c3)C1)C2` (stereo not shown) [Example 284-P2, (5,6-Dimethyl-7,9-dihydro-8H-pyrrolo[3,4-c][1,2,4]triazolo[1,5-a]pyridin-8-yl)(3-((2-(trifluoromethyl)pyridin-4-yl)amino)cyclobutyl)methanone], 59.7 nM; that for `Cc1c2c(c3ncnn3c1C)CN(C(=O)CC1CN(c3cc(Cl)ncc3Cl)C1)C2` [Example 146], 12.4 nM. Same read-out and setting: the result for `CCOc1cc(N2CC(CC(=O)N3Cc4c(C)c(C)n5ncnc5c4C3)C2)ccn1` [Example 235] reads 35.3 nM; that for `Cc1c2c(c3nccn3c1C)CN(C(=O)CC1CN(c3ccnc(C(F)F)c3)C1)C2` [Example 101], 33.5 nM. Same read-out and setting: as for `Cc1c2c(c3ccnn3c1C)CN(C(=O)CC1CN(c3ccnc(C(F)F)c3)C1)C2` [Example 208], the figure is 42.6 nM; as for `Cc1c2c(c3ncnn3c1C)CN(C(=O)CC1CN(c3ccnc(OCC(F)F)c3)C1)C2` [Example 185], 11.1 nM; as for `Cc1nc2c3c(c(C)c(C)n2n1)CN(C(=O)CC1CN(c2ccnc(OC4CC4)c2)C1)C3` [Example 230], 16.3 nM. On to `Cc1c2c(c3ncnn3c1C)CN(C(=O)CC1CN(c3ccc(S(=O)(=O)C(F)F)cc3)C1)C2` [Example 25], for which the EC50 amounted to 9.5 nM. For `Cc1c2c(c3ncnn3c1C)CN(C(=O)C1CC(Nc3ncc(C(F)(F)F)cn3)C1)C2` (stereo not shown) [Example 299, (5,6-Dimethyl-7,9-dihydro-8H-pyrrolo[3,4-c][1,2,4]triazolo[1,5-a]pyridin-8-yl)(3-((5-(trifluoromethyl)pyrimidin-2-yl)amino)cyclobutyl)methanone], the 50% effective concentration (EC50) came out at 26.8 nM.

`Cc1c2c(c3ccnn3c1C)CN(C(=O)CC1CN(c3ccc4nc(C(F)(F)F)cn4n3)C1)C2` [Example 227]: the EC50 came out at 90.4 nM.

Regarding `Cc1c2c(c3nc(N)nn3c1C)CN(C(=O)CC1CN(c3ccnc(OC(F)F)c3)C1)C2` [Example 181], the half-maximal effective concentration (EC50) is 25.9 nM. Still for that read-out and setting: the result for `CCOc1cc(N2CC(OC(=O)N3Cc4c(C)c(C)n5ncnc5c4C3)C2)ccn1` [Example 238] reads 35.1 nM; that for `Cc1c2c(c3ncnn3c1C)CN(C(=O)CC1CN(c3ncc(C4CC(F)(F)C4)cn3)C1)C2` [Example 320], 34.1 nM; that for `Cc1c2c(c3ncnn3c1C)CN(C(=O)CC1CN(c3ncc(F)cn3)C1)C2` [Example 300], 35.7 nM. On the same count and under the same terms, the result for `Cc1cn2nc(N3CC(CC(=O)N4Cc5c(C)c(C)n6nccc6c5C4)C3)ccc2n1` [Example 201] reads 56.4 nM; that for `Cc1c2c(c3ncnn3c1C)CN(C(=O)CC1CN(c3ccnc(C(F)(F)F)c3)C1)C2` [Example 20, 1-(5,6-Dimethyl-7,9-dihydro-8H-pyrrolo[3,4-c][1,2,4]triazolo[1,5-a]pyridin-8-yl)-2-(1-(2-(trifluoromethyl)pyridin-4-yl)azetidin-3-yl)ethan-1-one], 14.7 nM. On the same count and under the same terms, the result for `CCc1ccc(N2CC(CC(=O)N3Cc4c(C)c(C)n5ncnc5c4C3)C2)cn1` [Example 313] reads 10.4 nM; that for `Cc1cn2nc(N3CC(CC(=O)N4Cc5c(C)c(C)n6nc(C)nc6c5C4)C3)ccc2n1` [Example 127], 15.2 nM.

With `Cc1c2c(c3ncnn3c1C)CN(C(=O)CC1CN(c3ccnc(S(=O)(=O)N(C)C)c3)C1)C2` [Example 61], the EC50 turned out to be 10.6 nM.

For the molecule `Cc1c2c(c3ncnn3c1C)CN(C(=O)c1ccc(F)c(Cl)c1)C2` [Example 29], the EC50 came to 37 nM. The same measure, in the same setting: as for `COc1cc(N2CC(CC(=O)N3Cc4c(C)c(C)n5nccc5c4C3)C2)c(F)cn1` [Example 220], the figure is 53.5 nM; as for `Cc1c2c(c3ncnn3c1C)CN(C(=O)C1CCN(c3ccncn3)C1)C2` (stereo not shown) [Example 34], 40.4 nM.

Take `Cc1c2c(c3nc(C4CC4)nn3c1C)CN(C(=O)CC1CN(c3ccnc(C(F)(F)F)c3)C1)C2` [Example 143]: the 50% effective concentration (EC50) came to 30.9 nM. Still for that read-out and setting: as for `Cc1nc2c3c(c(C)c(C)n2n1)CN(C(=O)C1CCN(c2ccncn2)C1)C3` (stereo not shown) [Example 140], the figure is 51.7 nM. On the same count and under the same terms, the result for `Cc1c2c(c3nccn3c1C)CN(C(=O)OC1CN(c3ccnc(OC(F)F)c3)C1)C2` [Example 72] reads 87.5 nM. The same measure, in the same setting: as for `Cc1c2c(c3ncnn3c1C)CN(C(=O)CC1CN(c3ccc4c(cnn4C4CC4)c3)C1)C2` [Example 306], the figure is 11.1 nM; as for `Cc1cn2cc(N3CC(OC(=O)N4Cc5c(C)c(C)n6ncnc6c5C4)C3)ccc2n1` [Example 178], 83.8 nM; as for `Cc1c2c(c3ncnn3c1C)CN(C(=O)CC1CN(c3ccc4nc(C(F)(F)F)cn4n3)C1)C2` [Example 213], 12.4 nM. Take `Cc1c2c(c3ncnn3c1C)CN(C(=O)CC1CN(c3ccnc(C4CCCCO4)c3)C1)C2` (stereo not shown) [Example 100]: the EC50 amounted to 18.4 nM.
